# Assay results reported in paper PMC4883017 (Molecular pharmaceutics, 2015).
# How the values were obtained:
# [1] = cited from earlier work
# HepG2 cells = settings: human, 10 days, 30 μg/mL
# [2] = Pharmacokinetics after i.v. injection; assay type: in vivo; settings: plasma, Balb/c mice, means ± SD
# HIV-1ADA [3] = assay: Antiviral activity in vivo, humanized PBL-NSG mouse model of HIV-1 infection; parameters: species or system hu-PBL NSG mice; settings: three i.v. injections over 15 days, Day 15
# HIV-1ADA [4] = assay: Reverse transcriptase inhibition in HIV-1 infected MDM; assay type: cell-based; settings: total NRTI concentration 4 μg/mL, Day 10
smiles,measurement,setting,value
"Cc1cn([C@H]2C[C@H](N=[N+]=[N-])[C@@H](CO)O2)c(=O)[nH]c1=O [AZT, Zidovudine]",Administered drug removed with urine,[1],more than 90%
same,Drop of the mtDNA amount,HepG2 cells,60%
same,AUC 0-τ,[2],22896 ± 85 ng·h/mL
same,AUC 0-∞,[2],88404 ± 786 ng·h/mL
same,CL,[2],3.81 ± 0.17 mL/h
same,Reduction of the virus level per lymphocyte (p24/CD45),HIV-1ADA [3],three-fold reduction
same,10-fold virus inhibition in the infected MDM at fixed concentration,HIV-1ADA [4],achieved only after the treatment with nanodrugs
